# Measured values taken from US20070021509A1, “Phosphate transport inhibitors” (priority 2001, published 2007).
# pIC50: −log10 of the molar value.
# System: phosphate uptake by rabbit intestinal Brush Border Membrane Vesicles (BBMV)
# Experiment: 33PO4 uptake in rabbit intestinal BBMV (HTS), phosphate transporter inhibition in vitro
# Assay type: biochemical
# Conditions: Table 1, phosphate uptake, read-out: IC50
# Method in brief: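 BBMV from duodenal mucosa of male New Zealand White rabbits, diluted to about 0.5-2.0 mg/mL protein. Uptake buffers carried 33PO4 at 200,000 CPM/19 μL. Controls: Na uptake buffer (max), plus 100 μM KH2PO4 pH 7.4 (mid), K uptake buffer (min).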
row,pIC50,Structure (SMILES)
1,3.30 to 4.00,O=C(O)c1cc(Br)ccc1NS(=O)(=O)c1ccccc1C(F)(F)F [Compound 26]
2,> 4.30,O=C(O)c1cc(Br)ccc1NS(=O)(=O)c1ccc(OC(F)(F)F)cc1 [Compound 2]
3,3.30 to 4.00,O=C(O)c1cc(Br)ccc1NS(=O)(=O)c1ccccc1Cl [Compound 31]
4,3.30 to 4.00,O=C(O)c1cc(Br)ccc1NS(=O)(=O)c1ccc([N+](=O)[O-])cc1 [Compound 33]
5,4.00 to 4.29,O=C(O)c1cc(Br)ccc1NS(=O)(=O)c1cc(C(F)(F)F)cc(C(F)(F)F)c1 [Compound 3]
6,3.30 to 4.00,O=C(O)c1cc(Br)ccc1NS(=O)(=O)c1cccc([N+](=O)[O-])c1 [Compound 13]
7,4.00 to 4.29,O=C(O)c1cc(Br)ccc1NS(=O)(=O)c1ccc(-c2ccccc2)cc1 [Compound 8]
8,< 2.82,O=C(O)c1cc(Br)ccc1NS(=O)(=O)c1ccccc1[N+](=O)[O-] [Compound 48]
9,< 2.82,O=C(O)c1cc(Br)ccc1NS(=O)(=O)c1ccc(Cl)cc1 [Compound 46]
10,< 2.82,O=C(O)c1cc(Br)ccc1NS(=O)(=O)c1ccc(Cl)cc1 [Compound 39]
11,2.82 to 3.00,O=C(O)c1cc(Br)ccc1NS(=O)(=O)c1ccccc1[N+](=O)[O-] [Compound 38]
12,3.30 to 4.00,C=Cc1ccc(S(=O)(=O)Nc2ccc(Br)cc2C(=O)O)cc1 [Compound 30]

# Same assay, conditions: Table 2, phosphate uptake, read-out: IC50
row,pIC50,Structure (SMILES)
1,4.00 to 4.29,O=C(NCc1ccccc1OC(F)(F)F)c1cc(Br)ccc1NS(=O)(=O)c1ccc(OC(F)(F)F)cc1 [Compound 61]
2,< 2.82,O=C(Nc1ccc(Cl)cc1)c1cc(Br)ccc1NS(=O)(=O)c1ccc(Cl)cc1 [Compound 97]
3,2.82 to 3.00,NCCCCCCNC(=O)c1cc(Br)ccc1NS(=O)(=O)c1ccc(Cl)c([N+](=O)[O-])c1 [Compound 119]
4,4.00 to 4.29,O=C(Nc1ccc(Cl)cc1Cl)c1cc(Br)ccc1NS(=O)(=O)c1ccc(Cl)cc1 [Compound 85]
5,> 4.30,O=C(Nc1cc(Cl)ccc1Cl)c1cc(Br)ccc1NS(=O)(=O)c1ccc(Cl)c([N+](=O)[O-])c1 [Compound 112]
6,4.00 to 4.29,COc1ccc(S(=O)(=O)Nc2ccc(Br)cc2C(=O)Nc2cccc(Br)c2)cc1[N+](=O)[O-] [Compound 103]
7,3.30 to 4.00,O=C(NCc1ccccc1F)c1cc(Br)ccc1NS(=O)(=O)c1ccc(OC(F)(F)F)cc1 [Compound 70]
8,3.00 to 3.30,O=C(Nc1cc(Cl)ccc1Cl)c1cc(Br)ccc1NS(=O)(=O)c1ccc(OC(F)(F)F)cc1 [Compound 80]
9,3.30 to 4.00,COc1ccc(S(=O)(=O)Nc2ccc(Br)cc2C(=O)Nc2ccccc2C)cc1[N+](=O)[O-] [Compound 108]
10,4.00 to 4.29,O=C(NCc1ccc(Cl)c(Cl)c1)c1cc(Br)ccc1NS(=O)(=O)c1ccc(OC(F)(F)F)cc1 [Compound 63]
11,> 4.30,O=C(NCc1ccccc1C(F)(F)F)c1cc(Br)ccc1NS(=O)(=O)c1ccc(OC(F)(F)F)cc1 [Compound 55]
12,> 4.30,O=C(NCc1ccc(F)cc1)c1cc(Br)ccc1NS(=O)(=O)c1ccc(OC(F)(F)F)cc1 [Compound 52]
13,4.00 to 4.29,CSc1ccc(NC(=O)c2cc(Br)ccc2NS(=O)(=O)c2ccc(OC(F)(F)F)cc2)cc1 [Compound 65]
14,4.00 to 4.29,O=C(Nc1ccccc1Br)c1cc(Br)ccc1NS(=O)(=O)c1ccc(Cl)c([N+](=O)[O-])c1 [Compound 114]

# Same assay, conditions: Table 3, 100 μM compound
row,Structure (SMILES),% Inhib. At 100 μM
1,CSc1ccc(NS(=O)(=O)c2ccc(OC(F)(F)F)cc2)cc1 [Compound 128],88%
2,O=S(=O)(c1ccc(Cl)cc1)N1CCc2ccccc21 [Compound 140],69%
3,Cc1ccc(CNS(=O)(=O)c2ccc(OC(F)(F)F)cc2)cc1 [Compound 163],26%
4,O=S(=O)(c1ccc(Cl)cc1)N1CCCc2ccccc21 [Compound 139],70%
5,O=S(=O)(c1ccccc1)n1ccc2ccccc21 [Compound 135],76%
6,O=[N+]([O-])c1cc(Br)ccc1N(c1ccc(OC(F)(F)F)cc1)S(=O)(=O)c1ccc(OC(F)(F)F)cc1 [Compound 160],34%
7,COc1cc([N+](=O)[O-])ccc1NC(=O)c1cc(Br)ccc1NS(=O)(=O)c1ccc(OC(F)(F)F)cc1 [Compound 170],103%
8,O=[N+]([O-])c1ccc(S(=O)(=O)n2cnc3ccccc32)cc1 [Compound 164],26%
9,COc1ccc2c(c1)C(=O)CCN2S(=O)(=O)c1ccc(C)cc1 [Compound 165],25%
10,CC(=O)Nc1ccc(S(=O)(=O)N2CCCc3ccccc32)cc1 [Compound 158],37%

# Same assay, conditions: Table 4, phosphate uptake, read-out: IC50
row,pIC50,Structure (SMILES)
1,3.00 to 3.30,CC(=O)c1cccc(NC(=O)Nc2ccc(Br)cc2P(=O)(O)O)c1 [Compound 199]
2,> 4.30,O=C(Nc1ccc(Cl)c(Cl)c1)Nc1ccc(Br)cc1P(=O)(O)O [Compound 179]
3,3.00 to 3.30,O=C(Nc1ccccc1F)Nc1ccc(Br)cc1P(=O)(O)O [Compound 200]
4,4.00 to 4.29,O=C(Nc1cc(C(F)(F)F)cc(C(F)(F)F)c1)Nc1ccc(Br)cc1P(=O)(O)O [Compound 182]
5,4.00 to 4.29,O=C(Nc1cc(Cl)cc(Cl)c1)Nc1ccc(Br)cc1P(=O)(O)O [Compound 180]
6,3.30 to 4.00,O=C(Nc1cc(Cl)c(Cl)cc1Cl)Nc1ccc(Br)cc1P(=O)(O)O [Compound 193]
7,2.82 to 3.00,Cc1ccc(NC(=O)Nc2ccc(Br)cc2P(=O)(O)O)cc1 [Compound 207]
8,2.82 to 3.00,Cc1cc(C)cc(NC(=O)Nc2ccc(Br)cc2P(=O)(O)O)c1 [Compound 206]
9,3.30 to 4.00,O=C(Nc1cccc(C(F)(F)F)c1)Nc1ccc(Br)cc1P(=O)(O)O [Compound 192]
10,3.30 to 4.00,O=C(Nc1ccccc1-c1ccccc1)Nc1ccc(Br)cc1P(=O)(O)O [Compound 186]
11,2.82 to 3.00,O=C(Nc1ccccc1)Nc1ccc(Br)cc1P(=O)(O)O [Compound 205]
12,3.30 to 4.00,Cc1ccc(NC(=O)Nc2ccc(Br)cc2P(=O)(O)O)cc1[N+](=O)[O-] [Compound 190]
13,4.00 to 4.29,O=C(Nc1cc(Cl)cc(C(F)(F)F)c1)Nc1ccc(Br)cc1P(=O)(O)O [Compound 181]
14,> 4.30,O=C(Nc1ccc(OC(F)(F)F)cc1)Nc1ccc(Br)cc1P(=O)(O)O [Compound 177]

# Same assay, conditions: Table 5, 100 μM compound
row,Structure (SMILES),% Inhib. at 100 μM
1,O=C(Nc1cccc(C(F)(F)F)c1)Nc1ccc(Cl)c(Cl)c1 [Compound 216],95%
2,O=C(Nc1cccc(F)c1)Nc1ccc(Br)cc1P(=O)(O)O [Compound 229],73%
3,O=C(Nc1ccc(Br)cc1)Nc1cccc(C(F)(F)F)c1 [Compound 227],75%
4,O=C(Nc1cccc(C(F)(F)F)c1)Nc1ccc(Cl)cc1Cl [Compound 224],85%
5,O=C(Nc1ccc(Cl)cc1)Nc1cccc(C(F)(F)F)c1 [Compound 228],74%
6,CCOP(=O)(OCC)c1cc(Br)ccc1NC(=O)Nc1cccc(C(F)(F)F)c1 [Compound 226],77%
7,O=C(Nc1cccc(C(F)(F)F)c1)Nc1cc(Cl)ccc1Cl [Compound 220],92%
8,O=C(Nc1cccc(C(F)(F)F)c1)Nc1ccc(F)c([N+](=O)[O-])c1 [Compound 222],88%
9,O=C(Nc1cccc(Cl)c1)Nc1cccc(C(F)(F)F)c1 [Compound 219],92%

# Same assay, conditions: Table 6, 100 μM compound
row,Structure (SMILES),% Inhib. at 100 μM
1,Oc1ccc(C2=NOC(c3ccc(F)cc3)C2)cc1 (centres unmarked) [Compound 234],62%
2,Fc1ccc(C2CC(c3ccc(Oc4ccccc4)cc3)=NO2)cc1 (centres unmarked) [Compound 235],54%

# Same assay, conditions: Table 7, phosphate uptake, read-out: IC50
row,pIC50,Structure (SMILES)
1,< 2.82,Cn1nc(-c2ccc(O)cc2)cc1-c1ccco1 [Compound 242]

# Same assay, conditions: Table 8, 100 μM compound
row,Structure (SMILES),% Inhib. at 100 μM
1,CCCCOc1ccc(C(=O)Nc2ccc(Br)cc2P(=O)(OCC)OCC)cc1 [Compound 246],57%
2,CCOP(=O)(OCC)c1cc(Br)ccc1NC(=O)c1ccc(Br)cc1 [Compound 245],67%
3,CCOP(=O)(OCC)c1cc(Br)ccc1NC(=O)c1ccc(OC)c(OC)c1 [Compound 248],48%

# Same assay, conditions: Table 10, phosphate uptake, read-out: IC50
row,Structure (SMILES),pIC50
1,O=C(Nc1ccc(Oc2ccc(Cl)c3ccccc23)c(Cl)c1)c1cc(Cl)cc(Cl)c1O [Compound 258],3.30 to 4.00
2,CCOP(=O)(OCC)c1cc(Br)ccc1NC(=O)c1ccc(Cl)c(Cl)c1 [Compound 267],3.00 to 3.30
3,CCOP(=O)(OCC)c1cc(Br)ccc1NC(=O)c1ccc(OC(F)(F)F)cc1 [Compound 259],3.30 to 4.00
4,CCOP(=O)(OCC)c1cc(Br)ccc1NC(=O)c1cccc2ccccc12 [Compound 265],3.00 to 3.30
5,CCOP(=O)(OCC)c1cc(Br)ccc1NC(=O)c1ccc(OC(F)(F)F)cc1 [Compound 250],> 4.30
6,O=C(Nc1ccc(Br)cc1)c1cc(Br)cc(Br)c1O [Compound 253],3.30 to 4.00
7,O=C(Nc1ccc(Br)cc1)c1cc(Br)cc(Br)c1O [Compound 251],4.00 to 4.29
8,CCOP(=O)(OCC)c1cc(Br)ccc1NC(=O)c1c(Cl)cc(Cl)cc1Cl [Compound 270],< 2.82

# Same assay, conditions: Table 11, phosphate uptake, read-out: IC50
row,pIC50,Structure (SMILES)
1,< 2.82,COc1cccc(C(=O)/C=C/c2cccc(F)c2)c1 [Compound 278]
2,3.00 to 3.30,O=C(/C=C/c1cccc(F)c1)c1cccc(O)c1 [Compound 277]

# Same assay, conditions: Table 12, 100 μM compound
row,Structure (SMILES),% Inhib. at 100 μM
1,O=[N+]([O-])c1ccc(CS(=O)(=O)c2ccc(F)cc2F)c(Cl)c1 [Compound 285],44%
2,O=S(=O)(Cc1c(Cl)cccc1Cl)c1cc(C(F)(F)F)cc(C(F)(F)F)c1 [Compound 283],51%

# Same assay, conditions: Table 13, phosphate uptake, read-out: IC50
row,pIC50,Structure (SMILES)
1,3.00 to 3.30,O=S(=O)(O)c1cc(NS(=O)(=O)c2cccc3ccccc23)ccc1/C=C/c1ccc(NS(=O)(=O)c2cccc3ccccc23)cc1S(=O)(=O)O [Compound 299]
2,3.00 to 3.30,O=S(=O)(O)c1cc(Nc2nc(Nc3ccccc3)nc(N(CCO)CCO)n2)ccc1/C=C/c1ccc(Nc2nc(Nc3ccccc3)nc(N(CCO)CCO)n2)cc1S(=O)(=O)O [Compound 302]
3,< 2.82,O=S(=O)(O)c1cc(N=C=S)ccc1/C=C/c1ccc(N=C=S)cc1S(=O)(=O)O [Compound 307]
